Laboratory results reported in ChEMBL document CHEMBL4406831, “Discovery of fused heterocyclic carboxamide derivatives as novel α7-nAChR agonists: Synthesis, preliminary SAR and biological evaluation” (Eur J Med Chem, 2019).
Active and inactive are the calls of the source. The rule behind the calls is not given here.

What was measured:
Assay type in all cases: cell-based
[1] = target: T1, Neuronal acetylcholine receptor subunit alpha-7 (Homo sapiens, UniProt P36544); assay: Agonist activity at human alpha7 nAChR expressed in Xenopus laevis oocytes assessed as induction of channel current at 100 uM at -90 mV holding potential by two-electrode voltage clamp method relative to acetylcholine
[2] = target: T1, Neuronal acetylcholine receptor subunit alpha-7; assay: Agonist activity at human alpha7 nAChR expressed in Xenopus laevis oocytes assessed as induction of channel current at 10 uM at -90 mV holding potential by two-electrode voltage clamp method relative to acetylcholine
[3] = target: T1, Neuronal acetylcholine receptor subunit alpha-7; assay: Agonist activity at human alpha7 nAChR expressed in Xenopus laevis oocytes assessed as peak current amplitude at -90 mV holding potential by two-electrode voltage clamp method relative to acetylcholine
[4] = target: T1, Neuronal acetylcholine receptor subunit alpha-7; assay: Agonist activity at human alpha7 nAChR expressed in Xenopus laevis oocytes assessed as induction of channel current at -90 mV holding potential by two-electrode voltage clamp method
[5] = target: T2, Neuronal acetylcholine receptor; alpha3/beta4 (Homo sapiens, UniProt P30926+P32297); assay: Agonist activity at alpha3beta4 nAChR (unknown origin) expressed in Xenopus laevis oocytes assessed as induction of current at 100 uM at -90 mV holding potential by two-electrode voltage clamp method
[6] = target: T1, Neuronal acetylcholine receptor subunit alpha-7; assay: Agonist activity at human alpha7 nAChR expressed in Xenopus laevis oocytes preincubated with 1 uM alpha7 type-2 PAM PNU-120596 at -90 mV holding potential by two-electrode voltage clamp method
[7] = organism: Homo sapiens; assay: Selectivity index, ratio of EC50 for alpha4beta2 nAChR (unknown origin) expressed in Xenopus laevis oocytes to EC50 for human alpha7 nAChR expressed in Xenopus laevis oocytes
[8] = target: T3, 5-hydroxytryptamine receptor 3A (Homo sapiens) (UniProt P46098); assay: Agonist activity at human 5-HT3A receptor expressed in Xenopus laevis oocytes at 10 uM at -90 mV holding potential by two-electrode voltage clamp method
T3 sequence (whole entry): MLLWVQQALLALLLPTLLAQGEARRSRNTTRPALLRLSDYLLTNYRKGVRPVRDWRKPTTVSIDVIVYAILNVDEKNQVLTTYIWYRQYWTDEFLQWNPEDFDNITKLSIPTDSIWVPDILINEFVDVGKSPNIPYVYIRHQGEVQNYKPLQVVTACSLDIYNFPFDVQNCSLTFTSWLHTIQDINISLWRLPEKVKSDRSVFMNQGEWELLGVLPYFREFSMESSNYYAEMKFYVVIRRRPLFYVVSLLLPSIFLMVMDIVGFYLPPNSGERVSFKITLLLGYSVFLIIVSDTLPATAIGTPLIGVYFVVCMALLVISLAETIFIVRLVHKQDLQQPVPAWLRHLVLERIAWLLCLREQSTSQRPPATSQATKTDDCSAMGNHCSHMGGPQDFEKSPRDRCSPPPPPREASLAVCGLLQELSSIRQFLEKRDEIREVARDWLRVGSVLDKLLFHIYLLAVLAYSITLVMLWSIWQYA

[9] = target: T3, 5-hydroxytryptamine receptor 3A (Homo sapiens); assay: Antagonist activity at human 5-HT3A receptor expressed in Xenopus laevis oocytes at 10 uM at -90 mV holding potential in presence of serotonin by two-electrode voltage clamp method
[10] = target: T1, Neuronal acetylcholine receptor subunit alpha-7; assay: Agonist activity at human alpha7 nAChR expressed in Xenopus laevis oocytes assessed as channel current at 10 uM at -90 mV holding potential in presence of 10 nM alpha7 nAChR antagonist, MLA by two-electrode voltage clamp method
[11] = target: T1, Neuronal acetylcholine receptor subunit alpha-7; assay: Induction of desensitization at human alpha7 nAChR expressed in Xenopus laevis oocytes assessed as inhibition of acetylcholine induced current treated with compound prior to 100 uM acetylcholine challenge at -90 mV holding potential by two-electrode voltage clamp method
[12] = organism: Homo sapiens; assay: Selectivity index, ratio of IC50 for alpha3beta4 nAChR (unknown origin) expressed in Xenopus laevis oocytes to EC50 for human alpha7 nAChR expressed in Xenopus laevis oocytes
[13] = target: T4, Neuronal acetylcholine receptor; alpha4/beta2 (Homo sapiens, UniProt P17787+P43681); assay: Agonist activity at alpha4beta2 nAChR (unknown origin) expressed in Xenopus laevis oocytes assessed as induction of current at 10 uM at -90 mV holding potential by two-electrode voltage clamp method
[14] = target: T4, Neuronal acetylcholine receptor; alpha4/beta2; assay: Agonist activity at alpha4beta2 nAChR (unknown origin) expressed in Xenopus laevis oocytes at -90 mV holding potential by two-electrode voltage clamp method
[15] = target: T5, 5-hydroxytryptamine receptor 3A (Homo sapiens, UniProt P46098); assay: (§1) Antagonist activity at human 5-HT3A receptor expressed in Xenopus laevis oocytes at -90 mV holding potential in presence of serotonin by two-electrode voltage clamp method
T5 sequence (P46098 whole entry): T3 sequence (whole entry)

[16] = target: T3, 5-hydroxytryptamine receptor 3A (Homo sapiens); assay: as §1
[17] = target: T2, Neuronal acetylcholine receptor; alpha3/beta4; assay: Agonist activity at alpha3beta4 nAChR (unknown origin) expressed in Xenopus laevis oocytes assessed as channel current at 10 uM at -90 mV holding potential by two-electrode voltage clamp method
[18] = target: T1, Neuronal acetylcholine receptor subunit alpha-7; assay: Agonist activity at human alpha7 nAChR expressed in Xenopus laevis oocytes assessed as increase in channel current at 10 uM at -90 mV holding potential in presence of 10 nM alpha7 nAChR antagonist, MLA measured after 10 mins by two-electrode voltage clamp method
[19] = target: T2, Neuronal acetylcholine receptor; alpha3/beta4; assay: Antagonist activity at alpha3beta4 nAChR (unknown origin) expressed in Xenopus laevis oocytes assessed as inhibition of acetylcholine-induced channel current at -90 mV holding potential by two-electrode voltage clamp method

T1 sequence (P36544 whole entry): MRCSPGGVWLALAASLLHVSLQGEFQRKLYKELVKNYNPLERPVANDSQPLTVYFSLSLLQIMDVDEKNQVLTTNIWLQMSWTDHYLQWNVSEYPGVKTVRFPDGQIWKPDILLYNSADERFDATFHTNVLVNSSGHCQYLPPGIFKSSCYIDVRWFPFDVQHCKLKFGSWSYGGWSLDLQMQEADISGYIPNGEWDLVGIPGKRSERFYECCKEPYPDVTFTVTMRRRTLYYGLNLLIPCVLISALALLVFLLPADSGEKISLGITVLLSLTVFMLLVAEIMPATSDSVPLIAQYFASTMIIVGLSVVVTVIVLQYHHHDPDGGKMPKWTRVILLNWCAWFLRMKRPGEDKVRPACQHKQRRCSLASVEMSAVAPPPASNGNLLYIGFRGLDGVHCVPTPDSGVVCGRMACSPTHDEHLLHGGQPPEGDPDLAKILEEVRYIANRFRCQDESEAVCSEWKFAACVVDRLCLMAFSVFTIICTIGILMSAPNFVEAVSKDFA
T4 sequence (P17787 whole entry): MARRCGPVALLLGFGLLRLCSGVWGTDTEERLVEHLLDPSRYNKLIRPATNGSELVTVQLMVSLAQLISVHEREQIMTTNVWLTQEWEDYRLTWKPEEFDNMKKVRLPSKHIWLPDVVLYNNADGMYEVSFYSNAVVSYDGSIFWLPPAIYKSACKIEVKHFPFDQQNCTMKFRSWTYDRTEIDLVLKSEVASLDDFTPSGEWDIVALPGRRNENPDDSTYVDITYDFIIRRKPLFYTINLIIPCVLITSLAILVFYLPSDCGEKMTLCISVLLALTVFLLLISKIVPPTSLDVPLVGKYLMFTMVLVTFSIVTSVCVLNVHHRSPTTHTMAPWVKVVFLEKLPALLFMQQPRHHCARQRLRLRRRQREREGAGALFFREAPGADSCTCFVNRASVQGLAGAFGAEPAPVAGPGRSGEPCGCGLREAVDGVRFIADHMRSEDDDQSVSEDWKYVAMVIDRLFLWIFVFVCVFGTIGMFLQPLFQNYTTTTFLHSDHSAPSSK
T4 sequence (P43681 whole entry): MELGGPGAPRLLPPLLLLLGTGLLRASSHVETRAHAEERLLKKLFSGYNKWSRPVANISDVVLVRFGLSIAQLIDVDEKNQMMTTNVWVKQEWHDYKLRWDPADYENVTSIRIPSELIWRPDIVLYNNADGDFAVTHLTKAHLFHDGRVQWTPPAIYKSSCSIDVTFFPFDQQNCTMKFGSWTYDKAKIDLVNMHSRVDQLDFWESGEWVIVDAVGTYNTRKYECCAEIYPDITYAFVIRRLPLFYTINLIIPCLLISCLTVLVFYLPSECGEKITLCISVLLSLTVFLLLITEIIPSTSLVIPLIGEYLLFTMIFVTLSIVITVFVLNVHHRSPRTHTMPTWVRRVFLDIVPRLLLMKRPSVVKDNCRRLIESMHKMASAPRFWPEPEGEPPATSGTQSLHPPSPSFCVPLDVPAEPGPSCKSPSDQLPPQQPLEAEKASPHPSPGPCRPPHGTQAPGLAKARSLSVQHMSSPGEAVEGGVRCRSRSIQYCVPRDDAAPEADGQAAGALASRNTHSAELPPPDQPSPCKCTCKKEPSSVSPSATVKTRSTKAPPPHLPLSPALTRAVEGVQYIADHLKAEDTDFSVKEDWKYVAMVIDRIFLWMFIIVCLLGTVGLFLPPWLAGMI
T2 sequence (P30926 whole entry): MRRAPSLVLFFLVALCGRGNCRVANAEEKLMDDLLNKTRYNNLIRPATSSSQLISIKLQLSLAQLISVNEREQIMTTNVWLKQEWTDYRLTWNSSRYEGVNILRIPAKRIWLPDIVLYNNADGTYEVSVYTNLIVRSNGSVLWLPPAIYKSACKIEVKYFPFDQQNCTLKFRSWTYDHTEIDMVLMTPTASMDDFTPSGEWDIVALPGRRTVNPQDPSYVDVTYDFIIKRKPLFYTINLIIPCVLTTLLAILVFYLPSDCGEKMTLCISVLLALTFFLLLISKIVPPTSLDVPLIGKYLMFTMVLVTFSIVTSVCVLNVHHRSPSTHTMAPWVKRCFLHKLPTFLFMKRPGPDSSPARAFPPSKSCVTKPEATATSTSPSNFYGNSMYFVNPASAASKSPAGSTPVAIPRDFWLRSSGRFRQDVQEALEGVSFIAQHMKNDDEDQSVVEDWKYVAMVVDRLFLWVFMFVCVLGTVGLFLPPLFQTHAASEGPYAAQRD
T2 sequence (P32297 whole entry): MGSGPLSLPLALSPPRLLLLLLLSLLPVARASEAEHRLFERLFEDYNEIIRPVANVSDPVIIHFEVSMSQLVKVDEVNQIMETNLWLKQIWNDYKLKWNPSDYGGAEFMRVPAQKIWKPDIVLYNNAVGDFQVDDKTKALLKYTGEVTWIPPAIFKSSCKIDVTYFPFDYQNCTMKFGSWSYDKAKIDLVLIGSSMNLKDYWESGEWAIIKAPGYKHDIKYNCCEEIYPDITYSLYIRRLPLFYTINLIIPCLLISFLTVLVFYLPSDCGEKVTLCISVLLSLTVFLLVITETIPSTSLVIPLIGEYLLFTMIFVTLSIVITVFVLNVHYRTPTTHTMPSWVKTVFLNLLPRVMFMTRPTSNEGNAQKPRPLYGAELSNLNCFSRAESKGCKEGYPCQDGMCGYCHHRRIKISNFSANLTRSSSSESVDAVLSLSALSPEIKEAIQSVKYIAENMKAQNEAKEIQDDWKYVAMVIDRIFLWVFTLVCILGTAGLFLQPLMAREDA

Structure (SMILES): O=C(N[C@H]1CN2CCC1CC2)c1cc2n(c1)CCCC2
- Activity [1]: < 60%

Structure (SMILES): CC(C)COc1ccc2c(ccc3cc(C(=O)N[C@H]4CN5CCC4CC5)cn32)c1
- Activity [2]: inactive

Structure (SMILES): O=C(N[C@H]1CN2CCC1CC2)c1cc2ccc3cc(-c4ccncc4)ccc3n2c1
- Activity [1]: < 60%

Structure (SMILES): C#CCOc1ccc2c(ccc3cc(C(=O)N[C@H]4CN5CCC4CC5)cn32)c1
- Emax [3]: 34.5%
- EC50 [4]: 7.63 µM
- Activity [2]: 60 to 120%

Structure (SMILES): O=C(N[C@H]1CN2CCC1CC2)c1cc2ccc3cc(Br)ccc3n2c1
- Activity [2]: < 60%

Structure (SMILES): O=C(N[C@H]1CN2CCC1CC2)c1cc2ccc3cc(OC(F)F)ccc3n2c1
- Activity [1]: 60 to 120%
- Activity [2]: < 60%

Structure (SMILES): O=C(N[C@H]1CN2CCC1CC2)c1cc2ccc3cc(OCc4ccccc4)ccc3n2c1
- Activity [1]: < 60%

Structure (SMILES): O=C(N[C@H]1CN2CCC1CC2)c1cc2ccc3cc(-c4cccnc4)ccc3n2c1
- Activity [1]: 60 to 120%
- Activity [2]: < 60%

Structure (SMILES): O=C(N[C@H]1CN2CCC1CC2)c1cc2ccc3cc(OCc4cccnc4)ccc3n2c1
- Activity [1]: 60 to 120%

Structure (SMILES): CC(C)(C)c1ccc(-c2ccc3c(ccc4cc(C(=O)N[C@H]5CN6CCC5CC6)cn43)c2)cc1
- Activity [1]: 60 to 120%
- Activity [2]: 60 to 120%

Structure (SMILES): CCCOc1ccc2c(ccc3cc(C(=O)N[C@H]4CN5CCC4CC5)cn32)c1
- Activity [1]: < 60%
- Activity [2]: < 60%

Structure (SMILES): Cc1ccccc1-c1ccc2c(ccc3cc(C(=O)N[C@H]4CN5CCC4CC5)cn32)c1
- Activity [1]: > 120%
- Emax [3]: 23.1%
- EC50 [4]: 3.2 µM
- Activity [2]: 60 to 120%

Structure (SMILES): O=C(N[C@H]1CN2CCC1CC2)c1cc2ccc3cc(F)ccc3n2c1
- Emax [3]: 58.6%
- EC50 [4]: 8.27 µM
- Activity [2]: 60 to 120%

Structure (SMILES): Cc1ccc2c(ccc3cc(C(=O)N[C@H]4CN5CCC4CC5)cn32)c1
- Activity [1]: > 120%
- Emax [3]: 29.2%
- EC50 [4]: 1.27 µM
- Activity [2]: > 120%

Structure (SMILES): O=C(N[C@H]1CN2CCC1CC2)c1cc2ccc3cc(OC4CCC4)ccc3n2c1
- Activity [1]: < 60%

Structure (SMILES): O=C(N[C@H]1CN2CCC1CC2)c1cc2ccc3cc(-c4ccsc4)ccc3n2c1
- Activity [1]: < 60%

Structure (SMILES): COc1ccc2c(ccc3cc(C(=O)N[C@H]4CN5CCC4CC5)cn32)c1
- Activity [2]: < 60%

Structure (SMILES): O=C(N[C@H]1CN2CCC1CC2)c1cc2ccc3cc(C4CC4)ccc3n2c1
- Activity [2]: < 60%

Structure (SMILES): CC(=O)OCC[N+](C)(C)C
- Activity [5]: Active

Structure (SMILES): O=C(N[C@H]1CN2CCC1CC2)c1cc2ccc3cc(N4CCCCC4)ccc3n2c1
- Activity [2]: < 60%

Structure (SMILES): CCC(CC)Oc1ccc2c(ccc3cc(C(=O)N[C@H]4CN5CCC4CC5)cn32)c1
- Activity [1]: inactive

Structure (SMILES): O=C(N[C@H]1CN2CCC1CC2)c1cc2n(c1)CCC2
- Activity [1]: < 60%

Structure (SMILES): C=CCOc1ccc2c(ccc3cc(C(=O)N[C@H]4CN5CCC4CC5)cn32)c1
- Activity [1]: inactive

Structure (SMILES): CCCC(C)Oc1ccc2c(ccc3cc(C(=O)N[C@H]4CN5CCC4CC5)cn32)c1 (stereo partly specified)
- Activity [1]: inactive

Structure (SMILES): O=C(N[C@H]1CN2CCC1CC2)c1cc2ccc3cc(-c4ccccc4)ccc3n2c1
- Activity [1]: 60 to 120%
- Activity [2]: < 60%

Structure (SMILES): O=C(N[C@H]1CN2CCC1CC2)c1cc2ccc3cc(-c4ccc(F)cc4)ccc3n2c1
- Activity [1]: inactive

Structure (SMILES): Cc1cc(-c2ccc3c(ccc4cc(C(=O)N[C@H]5CN6CCC5CC6)cn43)c2)ccn1
- Activity [1]: < 60%

Structure (SMILES): CC(C)Oc1ccc2c(ccc3cc(C(=O)N[C@H]4CN5CCC4CC5)cn32)c1
- Activity [1]: inactive

Structure (SMILES): O=C(N[C@H]1CN2CCC1CC2)c1cc2cccc(Cl)c2s1 [ENCENICLINE]
- Emax [3]: 27.6%
- EC50 [4]: 0.25 µM

Structure (SMILES): O=C(N[C@H]1CN2CCC1CC2)c1cc2ccc3cc(OCc4ccc(F)cc4)ccc3n2c1
- Activity [1]: < 60%

Structure (SMILES): O=C(N[C@H]1CN2CCC1CC2)c1cc2ccc3cc(Cl)ccc3n2c1
- Activity [2]: < 60%

Structure (SMILES): O=C(N[C@H]1CN2CCC1CC2)c1cc2ccc3cc(N4CCCC4)ccc3n2c1
- Activity [2]: < 60%

Structure (SMILES): O=C(N[C@H]1CN2CCC1CC2)c1cc2ccc3cc(C(F)(F)F)ccc3n2c1
- Activity [2]: < 60%

Structure (SMILES): O=C(N[C@H]1CN2CCC1CC2)c1cc2ccc3cc(O)ccc3n2c1
- Activity [1]: > 120%
- Emax [3]: 47.3%
- EC50 [4]: 2 µM

Structure (SMILES): O=C(N[C@H]1CN2CCC1CC2)c1cc2ccc3ccccc3n2c1
- Activity [6]: Dose-dependent effect
- EC50 [6]: 0.12 µM
- Ratio EC50 [7]: 3
- Activity [8]: inactive
- inhibition [9]: Active
- Activity [10]: inactive
- IC50 [11]: 0.0213 µM
- inhibition [11]: Dose-dependent effect
- Ratio IC50/EC50 [12]: 5
- Activity [13]: Active
- Emax [3]: 72.4%
- EC50 [14]: 6.14 µM
- IC50 [15]: 0.71 µM
- inhibition [16]: Dose-dependent effect
- Activity [17]: inactive
- Activity [18]: Active
- EC50 [4]: 1.88 µM
- IC50 [19]: 10.1 µM
- Activity [2]: 60 to 120%
